Test results as given in US20170071922A1, “ARTIFICIAL SKIN” (Shiseido Company, Ltd., priority 2010, published 2017).

System: skin model (EFT-400, MatTeK)
Experiment: Electron microscope observation of skin model cultured with MMP inhibitor and/or heparanase inhibitor
Assay type: cell-based, human
Settings: electron micrographs; result in words
Experimental: A skin model (EFT-400, MatTeK) was cultured in a specialized medium (EFT-400-ASY, MatTeK). Dimethylsulfoxide (DMSO) and ethanol were added to the specialized medium to a final concentration of 0.1% to serve as a control group, 50 mM 1-[4-(1H-benzoimidazol-2-yl)-phenyl]-3-[4-(1H-benzoimidazol-2-yl)-phenyl]-urea (DMSO solvent) was added to the specialized medium to a final concentration of 50 μM to serve as a heparanase inhibitor group, 10 mM N-hydroxy-2-[[(4-methoxyphenyl)sulfonyl] (3-picolyl)amino]-3-methylbutanamide hydrochloride (CGS27023A, ethanol solvent) was added to the specialized medium to a final concentration of 10 μM to serve as an MMP inhibitor group, and 50 mM 1-[4-(1H-benzoimidazol-2-yl)-phenyl]-3-[4-(1H-benzoimidazol-2-yl)-phenyl]-urea (DMSO solvent) and 10 mM CGS27023A (ethanol solvent) were added to the specialized medium to a final concentration of 50 μM and 10 μM, respectively, to serve as a heparanase inhibitor+MMP inhibitor group, followed by culturing.
The aforementioned skin model was cut in half after culturing, fixed with Zamboni's fixative and post-fixed with osmic acid, followed by embedding in resin in accordance with established methods. Tissues were observed by preparing ultra-thin sections and staining with uranyl acetate followed by observing with an electron microscope (JEM-1230, JEOL). […]

| SMILES | fibroblasts present in dermis directly beneath basement membrane (FIG. 2) |
| --- | --- |
| COc1ccc(S(=O)(=O)N(Cc2cccnc2)C(C(=O)NO)C(C)C)cc1.Cl (centres unmarked) [Group A, N-hydroxy-2-[[(4-methoxyphenyl)sulfonyl](3-picolyl)amino]-3-methylbutanamide hydrochloride] | normal fibroblasts |
| O=C(Nc1ccc(-c2nc3ccccc3[nH]2)cc1)Nc1ccc(-c2nc3ccccc3[nH]2)cc1 [Group B, 1-[4-(1H-benzoimidazol-2-yl)-phenyl]-3-[4-(1H-benzoimidazol-2-yl)-phenyl]-urea] | normal fibroblasts |
